Results reported in patent US11878975B2, “Substituted indole compounds useful as TLR inhibitors” (BRISTOL-MYERS SQUIBB COMPANY, priority 2017, dated 2024).

Assays:
Format in all cases: cell-based
human TLR9 = biological target: T1, human TLR9 (Homo sapiens, UniProt Q9NR96); assay: TLR9 inhibition reporter assay (HEK-Blue cells, SEAP reporter, ODN2006 stimulation); details: HEK-Blue cells overexpressing human TLR9, SEAP reporter, ODN2006 5 nM
T1 construct: host or cells: HEK-Blue cells
T1 sequence (Q9NR96 26-1032): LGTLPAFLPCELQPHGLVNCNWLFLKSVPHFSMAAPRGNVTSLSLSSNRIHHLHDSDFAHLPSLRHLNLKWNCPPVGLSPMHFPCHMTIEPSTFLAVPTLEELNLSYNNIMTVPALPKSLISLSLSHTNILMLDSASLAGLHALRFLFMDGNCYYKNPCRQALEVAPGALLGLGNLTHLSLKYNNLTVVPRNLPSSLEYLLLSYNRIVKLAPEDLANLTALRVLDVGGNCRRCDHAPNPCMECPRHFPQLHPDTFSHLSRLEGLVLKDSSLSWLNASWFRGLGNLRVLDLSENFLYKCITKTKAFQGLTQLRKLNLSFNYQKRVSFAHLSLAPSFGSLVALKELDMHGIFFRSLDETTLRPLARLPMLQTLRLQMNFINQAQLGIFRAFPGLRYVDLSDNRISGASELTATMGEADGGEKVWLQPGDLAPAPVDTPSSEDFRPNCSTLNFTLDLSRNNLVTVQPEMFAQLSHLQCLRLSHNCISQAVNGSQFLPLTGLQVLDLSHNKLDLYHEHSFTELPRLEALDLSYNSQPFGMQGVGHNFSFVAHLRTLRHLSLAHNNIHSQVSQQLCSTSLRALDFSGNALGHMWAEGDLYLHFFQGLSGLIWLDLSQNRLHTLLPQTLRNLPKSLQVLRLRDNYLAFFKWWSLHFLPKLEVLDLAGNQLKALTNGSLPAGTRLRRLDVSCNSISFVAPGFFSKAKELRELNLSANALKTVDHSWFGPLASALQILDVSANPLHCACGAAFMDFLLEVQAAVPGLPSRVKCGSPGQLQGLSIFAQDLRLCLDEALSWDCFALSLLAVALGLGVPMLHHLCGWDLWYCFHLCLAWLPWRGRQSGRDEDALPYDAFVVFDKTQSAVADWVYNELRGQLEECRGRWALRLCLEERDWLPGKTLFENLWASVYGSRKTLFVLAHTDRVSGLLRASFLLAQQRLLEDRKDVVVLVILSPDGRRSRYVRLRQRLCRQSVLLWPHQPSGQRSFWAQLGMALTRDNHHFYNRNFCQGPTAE
Method: (§1) TLR7/8/9 Inhibition Reporter Assays
(§2) HEK-Blue™-cells (Invivogen) overexpressing human TLR7, TLR8 or TLR9 receptors were used for screening inhibitors of these receptors using an inducible SEAP (secreted embryonic alkaline phosphatase) reporter gene under the control of the IFN-β minimal promoter fused to five NF-κB and AP-1-binding sites. Briefly, cells are seeded into Greiner 384 well plates (15000 cells per well for TLR7, 20,000 for TLR8 and 25,000 for TLR9) and then treated with test compounds in DMSO to yield a final dose response concentration range of 0.05 nM-50 μM. After a 30 minute compound pre-treatment al room temperature, the cells are then stimulated with a TLR7 ligand (gardiquimod at a final concentration of 7.5 μM), TLR8 ligand (R848 at a final concentration of 15.9 μM) or TLR9 ligand (ODN2006 at a final concentration of 5 nM) to activate NF-κB and AP-1 which induce the production of SEAP. After a 22 hour incubation at 37° C., 5% CO2, SEAP levels are determined with the addition of HEK-Blue™ Detection reagent (Invivogen), a cell culture medium that allows for detection of SEAP, according to manufacturer's specifications. The percent inhibition is determined as the % reduction in the HEK-Blue signal present in wells treated with agonist plus DMSO alone compared to wells treated with a known inhibitor.

human TLR8 = biological target: T2, human TLR8 (Homo sapiens, UniProt Q9NR97); assay: TLR8 inhibition reporter assay (HEK-Blue cells, SEAP reporter, R848 stimulation); details: HEK-Blue cells overexpressing human TLR8, SEAP reporter, R848 15.9 μM
T2 construct: host or cells: HEK-Blue cells
T2 sequence (Q9NR97 27-1041): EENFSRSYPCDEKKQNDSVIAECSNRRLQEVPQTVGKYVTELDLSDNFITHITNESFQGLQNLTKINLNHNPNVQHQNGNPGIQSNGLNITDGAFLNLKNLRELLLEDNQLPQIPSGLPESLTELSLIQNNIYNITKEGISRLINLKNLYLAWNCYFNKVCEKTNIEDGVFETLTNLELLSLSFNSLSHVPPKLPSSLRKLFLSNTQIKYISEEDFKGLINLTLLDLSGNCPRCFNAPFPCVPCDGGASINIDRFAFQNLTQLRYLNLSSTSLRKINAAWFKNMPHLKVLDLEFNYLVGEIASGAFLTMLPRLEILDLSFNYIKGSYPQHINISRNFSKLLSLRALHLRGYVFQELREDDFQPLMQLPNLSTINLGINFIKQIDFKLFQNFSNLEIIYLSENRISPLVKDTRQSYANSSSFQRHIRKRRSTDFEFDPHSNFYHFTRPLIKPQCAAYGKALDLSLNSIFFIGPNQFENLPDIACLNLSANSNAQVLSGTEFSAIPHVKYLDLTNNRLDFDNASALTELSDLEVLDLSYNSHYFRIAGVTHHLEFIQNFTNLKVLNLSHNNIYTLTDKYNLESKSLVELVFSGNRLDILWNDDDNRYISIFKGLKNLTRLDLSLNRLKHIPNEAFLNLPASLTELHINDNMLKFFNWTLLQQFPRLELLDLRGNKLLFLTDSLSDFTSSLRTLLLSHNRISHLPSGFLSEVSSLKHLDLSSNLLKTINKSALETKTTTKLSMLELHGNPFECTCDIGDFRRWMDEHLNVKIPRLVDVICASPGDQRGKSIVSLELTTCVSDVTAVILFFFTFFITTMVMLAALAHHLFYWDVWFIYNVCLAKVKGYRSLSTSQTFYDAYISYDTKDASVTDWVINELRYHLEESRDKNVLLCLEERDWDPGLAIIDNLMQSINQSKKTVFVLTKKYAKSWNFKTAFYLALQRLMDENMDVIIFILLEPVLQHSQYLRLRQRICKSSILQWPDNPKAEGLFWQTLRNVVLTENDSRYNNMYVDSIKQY
Method: as §1, §2

human TLR7 = biological target: T3, human TLR7 (Homo sapiens, UniProt Q9NYK1); assay: TLR7 inhibition reporter assay (HEK-Blue cells, SEAP reporter, gardiquimod stimulation); details: HEK-Blue cells overexpressing human TLR7, SEAP reporter, gardiquimod 7.5 μM
T3 construct: host or cells: HEK-Blue cells
T3 sequence (Q9NYK1 27-1049): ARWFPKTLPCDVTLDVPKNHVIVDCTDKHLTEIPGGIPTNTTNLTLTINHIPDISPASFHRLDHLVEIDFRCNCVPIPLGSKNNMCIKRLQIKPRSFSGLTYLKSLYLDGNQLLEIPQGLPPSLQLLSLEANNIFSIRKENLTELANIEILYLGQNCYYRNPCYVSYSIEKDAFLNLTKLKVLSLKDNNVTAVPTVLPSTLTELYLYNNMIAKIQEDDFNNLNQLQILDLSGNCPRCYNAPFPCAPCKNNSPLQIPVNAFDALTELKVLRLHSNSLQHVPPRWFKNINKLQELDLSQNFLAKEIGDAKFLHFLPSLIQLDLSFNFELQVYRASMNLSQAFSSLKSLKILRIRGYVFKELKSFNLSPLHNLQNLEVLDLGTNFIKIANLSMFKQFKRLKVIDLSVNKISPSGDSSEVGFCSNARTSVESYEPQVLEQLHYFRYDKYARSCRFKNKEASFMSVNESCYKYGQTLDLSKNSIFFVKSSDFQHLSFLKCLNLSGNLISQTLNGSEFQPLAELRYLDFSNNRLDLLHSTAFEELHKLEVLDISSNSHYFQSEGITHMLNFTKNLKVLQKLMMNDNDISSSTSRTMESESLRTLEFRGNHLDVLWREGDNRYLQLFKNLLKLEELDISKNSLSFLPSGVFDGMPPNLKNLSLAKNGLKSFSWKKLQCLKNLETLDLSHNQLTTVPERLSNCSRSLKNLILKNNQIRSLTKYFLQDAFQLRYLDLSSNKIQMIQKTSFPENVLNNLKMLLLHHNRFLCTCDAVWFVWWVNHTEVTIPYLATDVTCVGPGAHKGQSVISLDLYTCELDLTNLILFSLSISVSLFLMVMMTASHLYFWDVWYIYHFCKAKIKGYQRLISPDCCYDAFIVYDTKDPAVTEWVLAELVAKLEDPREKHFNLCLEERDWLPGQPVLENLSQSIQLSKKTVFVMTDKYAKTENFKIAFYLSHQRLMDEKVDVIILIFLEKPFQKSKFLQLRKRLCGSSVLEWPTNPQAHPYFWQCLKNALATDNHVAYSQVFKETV
Method: as §1, §2

COc1cc(-c2[nH]c3ccc(C4CCC(N5CC(O)C5)CC4)cc3c2C(C)C)cn2ncnc12 (single isomer, unassigned) [Example 22]
IC50 (human TLR9): 1200 nM | IC50 (human TLR8): 3.9 nM | IC50 (human TLR7): 0.85 nM

Cc1c(-c2[nH]c3ccc(C4CCC(N5CC(CO)(CO)C5)CC4)cc3c2C(C)C)cn2ncnc2c1C (single isomer, unassigned) [Example 26]
IC50 (human TLR9): 260 nM | IC50 (human TLR8): 0.84 nM | IC50 (human TLR7): 0.92 nM

Cc1c(-c2[nH]c3ccc(C4CCC(N5CC(CO)(CO)C5)CC4)cc3c2C(C)C)cn2ncnc2c1C (single isomer, unassigned) [Example 27]
IC50 (human TLR9): 1760 nM | IC50 (human TLR8): 2.8 nM | IC50 (human TLR7): 2 nM

Cc1cc(-c2[nH]c3ccc(C4CCC(N5CCN(C)CC5)CC4)cc3c2C(C)C)cc(C)n1 (single isomer, unassigned) [Example 36]
IC50 (human TLR9): 417 nM | IC50 (human TLR8): 3.9 nM | IC50 (human TLR7): 2 nM

Cc1cc(-c2[nH]c3ccc(C4CCC(N5CCN(C)CC5)CC4)cc3c2C(C)C)cc(C)n1 (single isomer, unassigned) [Example 37]
IC50 (human TLR9): 583 nM | IC50 (human TLR8): 56 nM | IC50 (human TLR7): 29 nM

COCCN1CCN(C2CCC(c3ccc4[nH]c(-c5cc(OC)c6ncnn6c5)c(C(C)C)c4c3)CC2)CC1 (single isomer, unassigned) [Example 38]
IC50 (human TLR9): 2090 nM | IC50 (human TLR8): 2.1 nM | IC50 (human TLR7): 1 nM

COCCN1CCN(C2CCC(c3ccc4[nH]c(-c5cc(OC)c6ncnn6c5)c(C(C)C)c4c3)CC2)CC1 (single isomer, unassigned) [Example 39]
IC50 (human TLR9): 2230 nM | IC50 (human TLR8): 5.8 nM | IC50 (human TLR7): 9 nM

COc1cc(-c2[nH]c3ccc(C4CCC(NC5(C)COC5)CC4)cc3c2C(C)C)cn2ncnc12 (single isomer, unassigned) [Example 44]
IC50 (human TLR9): 1960 nM | IC50 (human TLR8): 0.76 nM | IC50 (human TLR7): 0.21 nM

COc1cc(-c2[nH]c3ccc(C4CCC(NC5(C)COC5)CC4)cc3c2C(C)C)cn2ncnc12 (single isomer, unassigned) [Example 45]
IC50 (human TLR9): 1990 nM | IC50 (human TLR8): 3.8 nM | IC50 (human TLR7): 1 nM

Cc1cc(-c2[nH]c3ccc(C4CCC(NC5(C)COC5)CC4)cc3c2C(C)C)cn2ncnc12 (single isomer, unassigned) [Example 46]
IC50 (human TLR9): 1510 nM | IC50 (human TLR8): 0.84 nM | IC50 (human TLR7): 0.1 nM

Cc1cc(-c2[nH]c3ccc(C4CCC(NC5(C)COC5)CC4)cc3c2C(C)C)cn2ncnc12 (single isomer, unassigned) [Example 47]
IC50 (human TLR9): 4650 nM | IC50 (human TLR8): 7.5 nM | IC50 (human TLR7): 2 nM

COc1ccc(CNC2CCC(c3ccc4[nH]c(-c5cc(C)nc(C)c5)c(C(C)C)c4c3)CC2)cc1 (single isomer, unassigned) [Example 49]
IC50 (human TLR9): 391 nM | IC50 (human TLR8): 22 nM | IC50 (human TLR7): 7 nM

COc1ccc(CNC2CCC(c3ccc4[nH]c(-c5cc(C)nc(C)c5)c(C(C)C)c4c3)CC2)cc1 (single isomer, unassigned) [Example 50]
IC50 (human TLR9): 622 nM | IC50 (human TLR8): 149 nM | IC50 (human TLR7): 68 nM

CNC1CCC(c2ccc3[nH]c(-c4cc(C)nc(C)c4)c(C(C)C)c3c2)CC1 (single isomer, unassigned) [Example 51]
IC50 (human TLR9): 602 nM | IC50 (human TLR8): 11 nM | IC50 (human TLR7): 4 nM

CNC1CCC(c2ccc3[nH]c(-c4cc(C)nc(C)c4)c(C(C)C)c3c2)CC1 (single isomer, unassigned) [Example 52]
IC50 (human TLR9): 331 nM | IC50 (human TLR8): 1.8 nM | IC50 (human TLR7): 0.42 nM

Cc1cc(-c2[nH]c3ccc(C4CCC(N(C)C)CC4)cc3c2C(C)C)cc(C)n1 (single isomer, unassigned) [Example 53]
IC50 (human TLR9): 600 nM | IC50 (human TLR8): 2.9 nM | IC50 (human TLR7): 0.55 nM

CNC1CCC(c2ccc3[nH]c(-c4cc(C)c5ncnn5c4)c(C(C)C)c3c2)CC1 (single isomer, unassigned) [Example 56]
IC50 (human TLR9): 1370 nM | IC50 (human TLR8): 0.81 nM | IC50 (human TLR7): 0.17 nM

CNC1CCC(c2ccc3[nH]c(-c4cc(C)c5ncnn5c4)c(C(C)C)c3c2)CC1 (single isomer, unassigned) [Example 58]
IC50 (human TLR9): 3100 nM | IC50 (human TLR8): 6.6 nM | IC50 (human TLR7): 2 nM

CCN(C)C1CCC(c2ccc3[nH]c(-c4cc(OC)c5ncnn5c4)c(C(C)C)c3c2)CC1 (single isomer, unassigned) [Example 65]
IC50 (human TLR9): 1150 nM | IC50 (human TLR8): 1.3 nM | IC50 (human TLR7): 0.23 nM
